In patent US6429208B1, “Methods and compositions for restoring impaired cellular immune function” (Regents of the University of California, priority 1992, dated 2002):

Tests used:
Raji cells = experiment: Cytotoxic T-cell 51Cr-release assay against Raji cells; type: cell-based, human
Method: Cytotoxic T-cells from HIV seropositive subjects “regained” their normal ability to lyse allogenic tumor cell line in the presence of ddAdo as shown in FIG. 10B. In this experiment, ddAdo was added either during the six days of generation/priming (middle column of FIG. 10B) or during the three hour cytotoxic assay (right column of FIG. 10B). The cytotoxic assay used was a standard assay. Briefly, 10^6 PBMC were primed and irradiated (3000 Rad) Raji B-lymphoblastoid cells (8:1 ratio) for six days and added to triplicates of ^51Cr-labeled target Raji cells in effector target ratios from 6.25 to 50. ^51Cr released to the supernatant was measured in a gamma counter. Percentage of specific ^51Cr-release was calculated as 100×(released by PBMC−spontaneous release)/(maximum release with Triton X−spontaneous release). ddAdo was added in concentrations of 10 or 100 ng/ml either during priming or lysis.

[1] = Personal Communication; cited from earlier work
PBMC = experiment: Proliferative response to PHA after preincubation with HIV components; type: cell-based, human; conditions: HIV components 1 hour, wash, ddAdo 10 minutes, 5 of 5 experiments, FIG. 7
Method: (§1) Proliferative assays were performed as previously described (see, for example, Hofmann, B., et al., Cell Immunol (1989) 121:336-48. Briefly, one microcurie ^3H-thymidine was added to cultures 72 hours after stimulation, and after further 24 hours, all cultures were harvested on glass fiber filters with an automatic harvesting machine (Skatron, Lierbyen, Norway), and the incorporated radioactivity was measured in a liquid scintillation counter (Beckman LS 1800) after an addition of 1.5 ml scintillation fluid.
HIV components were added to PBMC for 1 hour followed by washing and then treating the cells with dideoxyadenosine (ddAdo) for 10 minutes, again followed by washing. Under these circumstances, the proliferative response to PHA could be restored (FIG. 7).

[2] = system: PBMC from HIV seropositive donors; experiment: Immunoglobulin / anti-HIV antibody production by PBMC from HIV seropositive donors; type: cell-based, human; conditions: 10 days
Method: Immunoglobulin production by B-cells is regulated by T-cells; CD4 provides “help” for de novo synthesis and CD8 suppresses immunoglobulin production. In HIV infection, increased total immunoglobulin production with a decrease in certain specific HIV antibodies to HIV GAG proteins during infection is a common finding (Lange, et al. AIDS (1987) 1:155-9). In this experiment, 10^6 PBMC from HIV seropositive donors were incubated in 1 ml cultures with and without ddAdo (1-100 ng/ml) for 10 days. IgG and anti-HIV antibodies in supernatant were measured by ELISA. p24 binding capacity was measured with a kit from DuPont following the manufacturer's protocol. Addition of ddAdo to cultures of PBMC from HIV seropositive subjects restored production of specific antibodies to p24 (Table 3). An effect of ddAdo on T-cells has been shown above but a possible direct effect on B-cells cannot be ruled out.
Addition of ddAdo to cultures of PBMC from HIV seropositive subjects increased spontaneous anti-p24 antibodies in individuals with none/low spontaneous production (p24 is an HIV core protein). One million PBMC from HIV seropositive donors were incubated in 1 ml cultures with and without ddAdo (1-100 ng/ml) for 10 days. IgG10 and production of anti-HIV antibodies to p24 in supernatants were measured by ELISA. p24 binding capacity was measured with a kit from DuPont (Delaware) following the manufacturer's protocol.

[3] = system: PBMC from an HIV seropositive subject; experiment: Proliferative response to PHA of PBMC from HIV seropositive subjects; type: cell-based, human
Method: as §1

[4] = system: PBMC from HIV seronegative controls; experiment: Proliferative response to Candida albicans, HIV seronegative controls; type: cell-based, human; conditions: seven HIV seronegative controls; without ddAdo 6600 (±2000)
Method: (§2) Proliferative assays were done in triplicates of 50,000 PBMC in 200 μL RPMI with 10% FCS and 8 μg/ml of Candida albicans. ddAdo was added in two-fold dilutions; tritiated thymidine was added at day 5 and cells were harvested at day 6. Concentrations of ddAdo from 12.5 to 50 ng/ml gave the highest responses. […] Ratio 1:12 gave 48% (±12) without and 76% (±9) with ddAdo during priming. Ratio 1:25 gave 61% (±15) without and 77% (±9) with ddAdo.

T lymphocyte = T lymphocyte proliferative response to HIV-specific protein (p24) in HIV seropositive subjects; type: cell-based, human; conditions: FIG. 11
Source text: FIG. 11 is a graph showing T lymphocyte proliferative response in HIV seropositive subjects to a specific recall antigen (Candida albicans) and to an HIV-specific protein (p24) before and after ddAdo treatment.

[5] = system: PBMC from HIV seropositive subjects; experiment: Proliferative response to Candida albicans, PBMC from HIV seropositive subjects; type: cell-based, human
Method: as §2

C[C@H]1O[C@@H](n2cnc3c(N)ncnc32)C[C@@H]1O [ddAdo, 2′,5′ dideoxyadenosine]
Ability of cytotoxic T-cells from HIV seropositive subjects to lyse allogenic tumor cell line (Raji cells; 10 or 100 ng/ml during priming or lysis, FIG. 10B): regained
Effect on target lysis by HIV seronegative cells (Raji cells; HIV seronegative subjects): minimal effect
Target lysis (specific ^51Cr-release) (Raji cells; Ratio 1:12, ddAdo during priming, without 48% (±12)): 76%
Target lysis (specific ^51Cr-release) (Raji cells; Ratio 1:25, without 61% (±15)): 77%
Antiviral effect [1]: no antiviral effect
Proliferative response to PHA (PBMC): restored
p24 Binding Capacity ([2]; Patient 1, none 0): 14 pg/mL
IgG ([2]; Patient 1, none 326): 367 µg/mL
Anti-HIV Ab ([2]; Patient 1, none .5910): .5300 OD
p24 Binding Capacity ([2]; Patient 2, none 0): 16 pg/mL
IgG ([2]; Patient 2, none 98): 89 µg/mL
Anti-HIV Ab ([2]; Patient 2, none .1320): .1940 OD
p24 Binding Capacity ([2]; Patient 3, none 0): 88 pg/mL
Anti-HIV Ab ([2]; Patient 3, none 1.1390): 1.0820 OD
IgG ([2]; Patient 3, none 366): 309 µg/mL
p24 Binding Capacity ([2]; Patient 4, none 25): 49 pg/mL
IgG ([2]; Patient 4, none 123): 142 µg/mL
Anti-HIV Ab ([2]; Patient 4, none .2000): .1640 OD
p24 Binding Capacity ([2]; Patient 5, none 41): 32 pg/mL
IgG ([2]; Patient 5, none 55): 192 µg/mL
Anti-HIV Ab ([2]; Patient 5, none .1480): .1360 OD
p24 Binding Capacity ([2]; Patient 6, none 60): 50 pg/mL
IgG ([2]; Patient 6, none 76): 80 µg/mL
Anti-HIV Ab ([2]; Patient 6, none .0330): .0330 OD
IgG ([2]; Patient 7, none 244): 145 µg/mL
p24 Binding Capacity ([2]; Patient 7, none 376): 418 pg/mL
Anti-HIV Ab ([2]; Patient 7, none .0570): .2990 OD
IgG ([2]; Patient 8, none 143): 170 µg/mL
p24 Binding Capacity ([2]; Patient 8, none 1540): 1560 pg/mL
Anti-HIV Ab ([2]; Patient 8, none .4860): .3900 OD
Proliferative response to PHA [3]: improved
Responses to Candida albicans [4]: 7600 (±1.9) cpm
T lymphocyte responses directed against HIV (T lymphocyte): restores/increases
Responses to Candida albicans (mean and SEM) ([5]; 14 HIV seropositive subjects, increased from 2900 (±1300)): 6100 (±1600) cpm
Responses to Candida albicans ([5]; some HIV seropositive subjects, increased from less than 1000 cpm, FIG. 10A): about 10,000 cpm
